Laboratory results from ChEMBL document CHEMBL1201862, “PubChem BioAssay data set” (2004).
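Five compound concentrations were applied to cells in 96-well plates for 48 hours; endpoints were derived by simple linear interpolation of the resulting dose-response curve. GI50 = concentration required for 50% inhibition of growth.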 The source made the active and inactive calls. Rule as the data show it: active = GI50 up to about 1.1 µM and inactive = higher.

Tests used:
Assay in all cases: NCI anticancer screen, dose series, 48 h
SK-MEL-2 = system: SK-MEL-2
HL-60 = system: HL-60
Malme-3M = system: Malme-3M
COLO 205 = system: COLO 205
SW-620 = system: SW-620
NCI-H23 = system: NCI-H23
SF-539 = system: SF-539
DLD-1 = system: DLD-1
HCC 2998 = system: HCC 2998
HOP-92 = system: HOP-92
UO-31 = system: UO-31
K562 = system: K562
SN12C = system: SN12C
NCI-H226 = system: NCI-H226
SK-MEL-5 = system: SK-MEL-5
M14 = system: M14
OVCAR-3 = system: OVCAR-3

Measured: GI50

CC(=O)N1c2ccccc2C2=CC3C4C(=O)N(c5ccccc5)C(=O)C4C21C1C(=O)N(c2ccccc2)C(=O)C31 (centres undefined)
inactive: SK-MEL-2 17.3 µM | HL-60 20.7 µM | Malme-3M 99.5 µM | COLO 205 59.7 µM | SW-620 31.2 µM | NCI-H23 48.2 µM | SF-539 2.61 µM | DLD-1 23.4 µM | HCC 2998 20.7 µM | HOP-92 > 100 µM | UO-31 48.3 µM | K562 15.1 µM | SN12C 42.7 µM

CN(Cc1ccccc1)c1nc(=[N+](C)C)ss1
inactive: NCI-H226 8.95 µM | SK-MEL-2 25.9 µM | HL-60 28.4 µM | Malme-3M > 100 µM | SW-620 > 100 µM | SK-MEL-5 58.6 µM | M14 > 100 µM | NCI-H23 31.8 µM | SF-539 76.4 µM | DLD-1 > 100 µM | HCC 2998 > 100 µM | HOP-92 > 100 µM | UO-31 > 100 µM | K562 23.4 µM | SN12C 65 µM

C1CSCCSCCCS[C@@H]2CCCCC2SC1 (some centres undefined)
inactive: NCI-H226 > 100 µM | SK-MEL-2 > 100 µM | HL-60 44.3 µM | Malme-3M > 100 µM | COLO 205 52.5 µM | SW-620 20.1 µM | SK-MEL-5 > 100 µM | M14 > 100 µM | NCI-H23 > 100 µM | OVCAR-3 > 100 µM | SF-539 > 100 µM | DLD-1 > 100 µM | HCC 2998 > 100 µM | HOP-92 65.2 µM | UO-31 > 100 µM | K562 24.3 µM | SN12C 72.4 µM

COc1cc(NS(C)(=O)=O)ccc1NCc1c2ccccc2nc2ccccc12
inactive: NCI-H226 > 100 µM | SK-MEL-2 44.4 µM | HL-60 13.5 µM | Malme-3M 31.5 µM | COLO 205 70.1 µM | SW-620 26.7 µM | M14 52.6 µM | NCI-H23 31 µM | OVCAR-3 43.5 µM | SF-539 24.3 µM | DLD-1 17.1 µM | HCC 2998 40.6 µM | HOP-92 17.3 µM | UO-31 19.1 µM | K562 7.87 µM | SN12C 28.3 µM

O=C1N/C(=C\[N+](=O)[O-])c2ccccc21
inactive: NCI-H226 > 100 µM | HL-60 > 100 µM | Malme-3M > 100 µM | COLO 205 > 100 µM | SW-620 > 100 µM | SK-MEL-5 > 100 µM | M14 > 100 µM | NCI-H23 > 100 µM | OVCAR-3 > 100 µM | SF-539 > 100 µM | DLD-1 > 100 µM | HCC 2998 > 100 µM | HOP-92 > 100 µM | UO-31 > 100 µM | K562 > 100 µM | SN12C > 100 µM

CCCN(CCCCC(NC(C)=O)C(=O)NCc1ccccc1)C(=O)NCCCl (centres undefined)
inactive: NCI-H226 > 100 µM | HL-60 > 100 µM | Malme-3M > 100 µM | COLO 205 > 100 µM | SW-620 > 100 µM | SK-MEL-5 > 100 µM | M14 > 100 µM | NCI-H23 > 100 µM | OVCAR-3 > 100 µM | SF-539 > 100 µM | DLD-1 > 100 µM | HCC 2998 > 100 µM | HOP-92 > 100 µM | UO-31 > 100 µM | K562 > 100 µM | SN12C > 100 µM

CC(=O)O[C@H]1CCC2[C@@H]3CCC4Nc5c(cnn5-c5ccccc5)C[C@]4(C)C3CC[C@@]21C (some centres undefined)
inactive: NCI-H226 11.5 µM | SK-MEL-2 17.1 µM | HL-60 7.64 µM | Malme-3M 11.8 µM | COLO 205 14.5 µM | SW-620 11.9 µM | SK-MEL-5 7.94 µM | M14 14.4 µM | NCI-H23 4.83 µM | OVCAR-3 6.92 µM | SF-539 17.5 µM | DLD-1 32.7 µM | HCC 2998 9.55 µM | UO-31 11 µM | K562 12.6 µM | SN12C 19.1 µM
